Values of other authors in paper PMC5641599 (Molecular Metabolism, 2017).
Read-outs that look alike come from different tables or passages of the source.

What was measured:
[1] = tested on: MC4R variants; details: cited from earlier work
[2] = tested on: MC4R variants; details: cited from earlier work; remark: listed apart in the source

NDP-MSH
Binding Bmax (% of WT) ([1]; MC4R N97D, ref Yeo GS, Hum Mol Genet, 2003): 10.5 % of WT
Binding Bmax (% of WT) ([1]; MC4R N274S, ref Tao YX, Endocrinology, 2003): 144.0 % of WT
Binding Bmax (% of WT) ([1]; MC4R N274S, ref Xiang Z, Biochemistry, 2006): 66.7 % of WT
Binding Bmax (% of WT) ([1]; MC4R P48S, ref Tao YX, Endocrinology, 2003): 79.0 % of WT
Binding Bmax (% of WT) ([1]; MC4R P48S, ref Xiang Z, Biochemistry, 2010): 48.6 % of WT
Binding Bmax (% of WT) ([1]; MC4R P78L, HEK293 cell line, ref Huang H, Int J Biol Sci, 2014): 0.0 % of WT
Binding Bmax (% of WT) ([1]; MC4R P78L, ref Nijenhuis WA, J Biol Chem, 2003): 0.9 % of WT
Binding Bmax (% of WT) ([1]; MC4R P78L, ref Tao YX, Endocrinology, 2003): 0.0 % of WT
Binding Bmax (% of WT) ([1]; MC4R P78L, ref Xiang Z, Biochemistry, 2006): 0.556 % of WT
Binding Bmax (% of WT) ([1]; MC4R P299H, ref Roubert P, J Endocrinol, 2010): 0.0 % of WT
Binding Bmax (% of WT) ([1]; MC4R P299H, ref Xiang Z, Biochemistry, 2006): 1.2 % of WT
Binding Bmax (% of WT) ([1]; MC4R P299L, ref Xiang Z, Biochemistry, 2010): 2.4 % of WT
Binding Bmax (% of WT) ([1]; MC4R R305W, ref Roubert P, J Endocrinol, 2010): 193.9 % of WT
Binding Bmax (% of WT) ([1]; MC4R S58C, ref Roubert P, J Endocrinol, 2010): 27.6 % of WT
Binding Bmax (% of WT) ([1]; MC4R S58C, ref Tao YX, Endocrinology, 2003): 14.0 % of WT
Binding Bmax (% of WT) ([1]; MC4R S58C, ref Xiang Z, Biochemistry, 2006): 22.2 % of WT
Binding Bmax (% of WT) ([1]; MC4R S94R, ref Xiang Z, Biochemistry, 2010): 0.135 % of WT
Binding Bmax (% of WT) ([1]; MC4R S295P, ref Tao YX, J Clin Endocrinol Metab, 2005): 129.0 % of WT
Binding Bmax (% of WT) ([1]; MC4R S295P, ref Xiang Z, Biochemistry, 2010): 162.2 % of WT
Binding Bmax (% of WT) ([1]; MC4R T112M, ref Nijenhuis WA, J Biol Chem, 2003): 100.0 % of WT
Binding Bmax (% of WT) ([1]; MC4R T112M, ref Tao YX, J Clin Endocrinol Metab, 2005): 130.0 % of WT
Binding Bmax (% of WT) ([1]; MC4R V50M, ref Roubert P, J Endocrinol, 2010): 69.4 % of WT
Binding Bmax (% of WT) ([1]; MC4R V50M, ref Tao YX, Endocrinology, 2003): 74.0 % of WT
Binding Bmax (% of WT) ([1]; MC4R V50M, ref Xiang Z, Biochemistry, 2010): 59.5 % of WT
Binding Bmax (% of WT) ([1]; MC4R V95I, ref Xiang Z, Biochemistry, 2006): 0.7 % of WT
Binding Bmax (% of WT) ([1]; MC4R V103I, ref Ho G, J Biol Chem, 1999): 123.3 % of WT
Binding Bmax (% of WT) ([1]; MC4R V103I, ref Xiang Z, Biochemistry, 2006): 100.0 % of WT
Binding Bmax (% of WT) ([1]; MC4R Y302F, ref Roth CL, Endocrine, 2009): 80.0 % of WT
Binding Bmax (% of WT) ([1]; MC4R Y332H, ref Santoro N, BMC Med Genet, 2009): 100.0 % of WT
cAMP Emax - Ligand no.3 ([2]; MC4R C40R, COS-7 cell line, ref Tarnow P, J Biol Chem, 2003): 118.6 % of WT
cAMP Emax - Ligand no.3 ([2]; MC4R C40R, ref Rong R, Clin Endocrinol, 2006): 87.0 % of WT
cAMP Emax - Ligand no.3 ([2]; MC4R C40Y, COS-7 cell line, ref Hughes DA, Hum Genet, 2009): 103.0 % of WT
cAMP Emax - Ligand no.3 ([2]; MC4R D37G, ref Hughes DA, Hum Genet, 2009): 83.0 % of WT
cAMP Emax - Ligand no.3 ([2]; MC4R F280AfsX12, ref Xiang Z, Biochemistry, 2006): 0.0 % of WT
cAMP Emax - Ligand no.3 ([2]; MC4R I251WfsX34, ref Xiang Z, Biochemistry, 2010): 0.0 % of WT
cAMP Emax - Ligand no.3 ([2]; MC4R L211MfsX6, HEK293, ref Ho G, J Biol Chem, 1999): 0.0 % of WT
cAMP Emax - Ligand no.3 ([2]; MC4R L211MfsX6, ref Xiang Z, Biochemistry, 2006): 0.0 % of WT
cAMP Emax - Ligand no.3 ([2]; MC4R Q43X, ref Alfieri A, Gene, 2010): 0.0 % of WT
cAMP Emax - Ligand no.3 ([2]; MC4R Q307X, COS-7 cell line, ref Reinehr T, Obesity, 2009): 0.0 % of WT
cAMP Emax - Ligand no.3 ([2]; MC4R Q307X, ref Santoro N, BMC Med Genet, 2009): 0.0 % of WT
cAMP Emax - Ligand no.3 ([2]; MC4R R7C, COS-7 cell line, ref Hinney A, J Clin Endocrinol Metab, 2006): 75.0 % of WT
cAMP Emax - Ligand no.3 ([2]; MC4R R7C, ref Fan ZC, J Cell Mol Med, 2009): 102.0 % of WT
cAMP Emax - Ligand no.3 ([2]; MC4R S19AfsX34, ref Alfieri A, Gene, 2010): 0.0 % of WT
cAMP Emax - Ligand no.3 ([2]; MC4R S36T, COS-7 cell line, ref Hughes DA, Hum Genet, 2009): 88.0 % of WT
cAMP Emax - Ligand no.3 ([2]; MC4R T11A, ref Tao YX, J Clin Endocrinol Metab, 2005): 109.0 % of WT
cAMP Emax - Ligand no.3 ([2]; MC4R T246DfsX41, HEK293, ref Ho G, J Biol Chem, 1999): 0.0 % of WT
cAMP Emax - Ligand no.3 ([2]; MC4R VADML88_92del, ref Donohoue PA, J Clin Endocrinol Metab, 2003): 0.0 % of WT
cAMP Emax - Ligand no.3 ([2]; MC4R W16X, COS-7, ref Bolze F, Pharmacogenomics J, 2013): 20.0 % of WT
cAMP Emax - Ligand no.3 ([2]; MC4R Y35C, ref Rong R, Clin Endocrinol, 2006): 105.0 % of WT
cAMP Emax - Ligand no.3 ([2]; MC4R Y35X, ref Xiang Z, Biochemistry, 2006): 0.0 % of WT
